Data from patent US20100172875A1, “OIL-IN-WATER EMULSION AND ITS USE FOR THE DELAYED RELEASE OF ACTIVE ELEMENTS” (NESTEC S.A., priority 2007, published 2010).
Like-named read-outs stand apart in the source and are kept apart here.

How the values were obtained:
[1] = active element release into the headspace of emulsions under in vitro dynamic conditions, monitored by PTR-MS; assay type: physicochemical; settings: for significance of Tmax difference: emulsion of this invention 5 wt % (MG:MCT 1:20) vs simple reference emulsion 5 wt % MCT, Fisher LSD, α<0.05
Description: The Tmax of a given active element released from a given emulsion is a parameter determined from the curve representing the variation over time of the given active element concentration in the water phase or in the headspace of the emulsion or of product containing the emulsion under dynamic condition (denoted as release curve) as time at which the measured concentration of the given active element reaches its maximum (FIG. 1). The analytical methods that can be applied for measurement of release curve and corresponding Tmax in dynamic condition include, but are not restricted to, measuring in headspace under a continuous purging flow of nitrogen and analyzing the active element in the purged headspace gas through its specific mass-to-charge using Proton Transfer Reaction-Mass Spectrometry (PTR-MS) (Pollien, P., Lindinger, C., Yeretzian, C., and Blank, I., “Proton Transfer Reaction Mass Spectrometry, a Tool for On-Line Monitoring of Acrylamide Formation in the Headspace of Maillard Reaction Systems and Processed Food,” Analytical Chemistry, Vol. 75, No. 20, 2003, pp. 5488-5494).
A double-jacketted glass cell was held at 36° C. with a circulating water bath. This cell was put in the oven which was held at 60° C. in order to avoid cold points and water condensation. The headspace cell was continuously purged at 200 sccm (standard cubic centimeters per minute) with pure nitrogen. Prior to introduction into the PTR-MS, the headspace was diluted with 1960 sccm of nitrogen to avoid water saturation of the instrument.
When all the set-up had been thermo-stabilized, 100 ml of sample, after being stabilized at 36° C. in a water bath, was poured inside the cell, which was quickly reconnected and put under agitation at 135 rpm. The release of active elements was monitored on-line during 10 minutes for each sample.
Nine specific masses were selected based on the scan data, i.e., m/z 45 for acetaldehyde, m/z 83 for cis-3-Hexen-1-ol, m/z 87 for diacetyl, m/z 99 for 2E-hexenal, m/z 107 for benzaldehyde, m/z 111 for octanal, m/z 131 for ethyl isovalerate, m/z 137 linalool, m/z 167 for 3-methoxy-2-isobutylpyrazine.
The PTR-MS signals (ion count) enabled us to calculate the active element concentration in the headspace of the emulsion so that to build the release curve for the active element. Cmax of a given active element released from a given emulsion was determined from the release curve as the maximum concentration of the active element released in the headspace of the emulsion, expressed in ppmV (parts per million in volume).
Tmax of a given active element released from a given emulsion was determined from the release curve as the time to reach maximum concentration of the active element released in the headspace of the emulsion, expressed in seconds. The nine active elements are listed in X axis and sorted along their logP, from the lowest logP value (hydrophilic compounds) to the highest logP (lipophilic compounds). Black, grey and hatched bars represent respectively Tmax the active elements released in the headspace of an oil-in-water emulsion containing with 10 wt % Medium Chain Triglycerides (MCT) (herein labelled as simple emulsion with 10 wt % MCT), of an oil-in-water emulsion containing 5 wt % MCT (herein labelled as simple reference emulsion with 5 wt % MCT), and an oil-in-water emulsion containing 5 wt % of an 1:20 mixture of a unsaturated monoglyceride (DIMODAN MO90, Danisco, Denmark) and MCT (herein Emulsion of the present invention with 5 wt % (MG:MCT 1:20)). All Tmax values were obtained on 6 replicated measurements. Tmax of 2E-Hexenal for the simple emulsion with 10 wt % MCT is not determined because its concentration in the headspace was continuously and gradually increasing over the 10 minutes of measurement. […]

[2] = octanol/water partition coefficient (logP) of the active elements; assay type: physicochemical
Description: The logarithm of the octanol/water partition coefficient (logP) is used extensively to describe the lipophilic or hydrophobic properties of an active element. The logP property value is taken from the ratio of the respective concentrations of the active element in the n-octanol and water partitions of a two-phase system at equilibrium. Among other methods, the classical and most reliable method of logP determination is the shake-flask method, which consists of dissolving some of the active element in question in a volume of n-octanol and water, then measuring the concentration of the solute in each solvent (Organization for Economic Cooperation and Development, Guidelines for The Testing of Chemicals, OECD 107, Partition Coefficient (n-octanol/water)-Shake Flask Method, Adopted 27 Jul. 1995-, OECD, Paris, France).
Table 1 lists active elements used in the study, providing chemical name (first column), the Chemical Abstract Service number (CAS#, second column), supplier and supplier product code (third and fourth column), the logarithm of the octanol/water partition coefficient (logP) and the concentration used in final formulations in parts per million of volume (ppmV). These nine active elements are volatile aroma compounds.

[3] = n-octanol/water, logarithm of the octanol/water partition coefficient, read-out: logP

Structure (SMILES)	significance of Tmax difference [1]	logP [2, 3]	logP [2]	logP ([2]; logarithm of the octanol/water partition coefficient)	Cmax released in headspace, comparison ([1]; emulsion of the present invention 5 wt % (MG:MCT 1:20) vs simple emulsion 10 wt % MCT)
COc1nccnc1CC(C)C [3-methoxy-2-isobutylpyrazine]	significant increase	2.62	–	–	–
CC=O [Acetaldehyde]	non-significant difference	-0.156	–	–	–
O=Cc1ccccc1 [Benzaldehyde]	significant increase	–	–	–	–
CC(=O)C(C)=O [Diacetyl]	non-significant difference	–	−1.332	–	–
CCOC(=O)CC(C)C [Ethyl isovalerate]	significant increase	2.12	–	–	–
CCC/C=C/C=O [Example 2E-hexenal, 2E-hexenal]	–	–	–	1.576	–
C=CC(C)(O)CCC=C(C)C (centres unmarked) [Linalool]	significant increase	3.28	–	–	significantly higher
CCCCCCCC=O [Octanal]	significant increase	3.03	–	–	–
CC/C=C\CCO [cis-3-Hexen-1-ol]	significant increase	[…]	–	–	–
